Assay results: ChEMBL document CHEMBL1201862, “PubChem BioAssay data set” (2004)
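1) Cells in 96-well plates. 2) Compound, 48 h, 5 concentrations. 3) Linear interpolation between surrounding doses. 4) Unreached endpoint = highest concentration. The concentration for 50% growth inhibition is given as GI50.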 Calls of active or inactive are those of the source. Cut-off read from the data, not from the text of the source: active = GI50 up to about 1.1 µM and inactive = higher.

Legend:
Test in all cases: inhibition of tumour cell growth, NCI panel, 48 h
HCT-116 = system: HCT-116
KM12 = system: KM12
HL-60 = system: HL-60
OVCAR-4 = system: OVCAR-4
DU-145 = system: DU-145
UO-31 = system: UO-31
HCT-15 = system: HCT-15
HOP-62 = system: HOP-62
SK-MEL-2 = system: SK-MEL-2
TK-10 = system: TK-10
RXF 393 = system: RXF 393
EKVX = system: EKVX
SN12C = system: SN12C
UACC-62 = system: UACC-62
SR = system: SR
SK-MEL-5 = system: SK-MEL-5
NCI-H23 = system: NCI-H23
HCC 2998 = system: HCC 2998
HOP-92 = system: HOP-92
SF-268 = system: SF-268
SW-620 = system: SW-620
NCI-H460 = system: NCI-H460
MDA-MB-435 = system: MDA-MB-435
BT-549 = system: BT-549
K562 = system: K562
OVCAR-8 = system: OVCAR-8
A498 = system: A498
U-251 = system: U-251
MOLT-4 = system: MOLT-4
NCI-H226 = system: NCI-H226
SF-295 = system: SF-295
OVCAR-3 = system: OVCAR-3
COLO 205 = system: COLO 205
CCRF-CEM = system: CCRF-CEM
786-0 = system: 786-0
M14 = system: M14
RPMI-8226 = system: RPMI-8226
IGROV-1 = system: IGROV-1
NCI/ADR-RES = system: NCI/ADR-RES
CAKI-1 = system: CAKI-1
SNB-19 = system: SNB-19
ACHN = system: ACHN
MDA-N = system: MDA-N
Malme-3M = system: Malme-3M
PC-3 = system: PC-3
MDA-MB-231 = system: MDA-MB-231
MCF7 = system: MCF7
OVCAR-5 = system: OVCAR-5
UACC-257 = system: UACC-257
SF-539 = system: SF-539
NCI-H522 = system: NCI-H522
LOX IMVI = system: LOX IMVI
T47D = system: T47D
HT-29 = system: HT-29
A549 = system: A549
Hs-578T = system: Hs-578T
SK-OV-3 = system: SK-OV-3
SK-MEL-28 = system: SK-MEL-28
SNB-75 = system: SNB-75

With `O=[N+]([O-])c1cc(C2(N3CCCCC3)CCCCC2)sc1Br` the GI50 (HCT-116) was 11.7 µM (inactive), the GI50 (KM12) was 6.49 µM (inactive) and the GI50 (HL-60) was 2.34 µM (inactive). For the same compound, the GI50 (OVCAR-4) was 13 µM (inactive), the GI50 (DU-145) was 3.18 µM (inactive) and the GI50 (UO-31) was 12.1 µM (inactive). The GI50 (HCT-15) was 5.02 µM, the GI50 (HOP-62) was 6 µM (inactive) and the GI50 (SK-MEL-2) was 7.06 µM (inactive). For the same compound, the GI50 (TK-10) was 2.39 µM (inactive), the GI50 (RXF 393) was 3.66 µM (inactive) and the GI50 (EKVX) was 9.16 µM (inactive). For the same compound, the GI50 (SN12C) was 5.15 µM (inactive), the GI50 (UACC-62) was 11.3 µM (inactive) and the GI50 (SR) was 2.99 µM (inactive). For the same compound, the GI50 (SK-MEL-5) was 5.04 µM (inactive), the GI50 (NCI-H23) was 11.9 µM (inactive) and the GI50 (HCC 2998) was 1.74 µM (inactive). For the same compound, the GI50 (HOP-92) was 8.81 µM (inactive), the GI50 (SF-268) was 7.5 µM (inactive) and the GI50 (SW-620) was 4.09 µM (inactive). For the same compound, the GI50 (NCI-H460) was 14.4 µM (inactive), the GI50 (MDA-MB-435) was 4.78 µM (inactive) and the GI50 (BT-549) was 6.82 µM (inactive). The GI50 (K562) was 2.92 µM (inactive), the GI50 (OVCAR-8) was 6.31 µM (inactive) and the GI50 (A498) was 5.92 µM (inactive). For the same compound, the GI50 (U-251) was 6.01 µM (inactive), the GI50 (MOLT-4) was 1.8 µM (inactive) and the GI50 (NCI-H226) was 3.33 µM (inactive). The GI50 (SF-295) was 15.3 µM (inactive), the GI50 (OVCAR-3) was 2.72 µM (inactive) and the GI50 (COLO 205) was 3.82 µM (inactive). For the same compound, the GI50 (CCRF-CEM) was 2.08 µM (inactive), the GI50 (786-0) was 3.94 µM (inactive) and the GI50 (M14) was 7.69 µM (inactive). The GI50 (RPMI-8226) was 1.74 µM (inactive), the GI50 (IGROV-1) was 11.4 µM (inactive) and the GI50 (NCI/ADR-RES) was 3.09 µM (inactive). The GI50 (CAKI-1) was 6 µM (inactive), the GI50 (SNB-19) was 14.1 µM (inactive) and the GI50 (ACHN) was 3.98 µM (inactive). For the same compound, the GI50 (MDA-N) was 6.41 µM (inactive), the GI50 (Malme-3M) was 3.44 µM (inactive) and the GI50 (PC-3) was 4.06 µM (inactive). The GI50 (MDA-MB-231) was 11 µM (inactive), the GI50 (MCF7) was 2.83 µM (inactive) and the GI50 (OVCAR-5) was 19.5 µM (inactive). For the same compound, the GI50 (UACC-257) was 2.04 µM (inactive), the GI50 (SF-539) was 2.52 µM (inactive) and the GI50 (NCI-H522) was 2.14 µM (inactive). The GI50 (LOX IMVI) was 2.82 µM (inactive), the GI50 (T47D) was 1.87 µM (inactive) and the GI50 (HT-29) was 3.87 µM (inactive). For the same compound, the GI50 (A549) was 17.1 µM (inactive), the GI50 (Hs-578T) was 7.05 µM (inactive) and the GI50 (SK-OV-3) was 16.3 µM (inactive). The GI50 (SK-MEL-28) was 5.41 µM (inactive).
In the case of `COc1cc(C2S/C(=C/c3ccccc3)C(=O)N2c2ccc(Cl)cc2)cc(OC)c1OC` (stereo not drawn), the GI50 (HCT-116) is reported as 3.65 µM (inactive), the GI50 (KM12) is reported as 11.3 µM (inactive) and the GI50 (HL-60) is reported as 23.2 µM (inactive). The GI50 (OVCAR-4) was 4.71 µM (inactive), the GI50 (DU-145) was 54.2 µM (inactive) and the GI50 (HCT-15) was 9.51 µM. The GI50 (HOP-62) was 14.2 µM (inactive), the GI50 (SK-MEL-2) was 7.98 µM (inactive) and the GI50 (TK-10) was > 100 µM (inactive). For the same compound, the GI50 (RXF 393) was 40.6 µM (inactive), the GI50 (EKVX) was 23.8 µM (inactive) and the GI50 (SN12C) was 39.1 µM (inactive). For the same compound, the GI50 (UACC-62) was 23.3 µM (inactive), the GI50 (SR) was 70 µM (inactive) and the GI50 (SK-MEL-5) was 0.492 µM (active). For the same compound, the GI50 (NCI-H23) was 12.7 µM (inactive), the GI50 (HCC 2998) was 36.6 µM (inactive) and the GI50 (HOP-92) was 5.92 µM (inactive). For the same compound, the GI50 (SF-268) was 8.24 µM (inactive), the GI50 (SW-620) was 12.9 µM (inactive) and the GI50 (MDA-MB-435) was 1.52 µM (inactive). The GI50 (BT-549) was 7.43 µM (inactive), the GI50 (OVCAR-8) was 22.1 µM (inactive) and the GI50 (A498) was 53.8 µM (inactive). The GI50 (U-251) was 37.7 µM (inactive), the GI50 (MOLT-4) was 5.79 µM (inactive) and the GI50 (NCI-H226) was > 89.1 µM (inactive). For the same compound, the GI50 (SF-295) was 7.64 µM (inactive), the GI50 (OVCAR-3) was 26.4 µM (inactive) and the GI50 (COLO 205) was 0.617 µM (active). The GI50 (CCRF-CEM) was 4.4 µM (inactive), the GI50 (786-0) was > 100 µM (inactive) and the GI50 (M14) was 2 µM (inactive). The GI50 (RPMI-8226) was 8.18 µM (inactive), the GI50 (IGROV-1) was 13.5 µM (inactive) and the GI50 (NCI/ADR-RES) was 16.9 µM (inactive). For the same compound, the GI50 (CAKI-1) was 20.9 µM (inactive), the GI50 (SNB-19) was > 88.7 µM (inactive) and the GI50 (ACHN) was 0.178 µM (active). The GI50 (MDA-N) was 1.58 µM (inactive), the GI50 (Malme-3M) was 23.7 µM (inactive) and the GI50 (SNB-75) was 16.4 µM (inactive). For the same compound, the GI50 (PC-3) was > 46.6 µM (inactive), the GI50 (MDA-MB-231) was > 43.9 µM (inactive) and the GI50 (MCF7) was 3.09 µM (inactive). The GI50 (OVCAR-5) was > 100 µM (inactive), the GI50 (UACC-257) was 34.2 µM (inactive) and the GI50 (NCI-H522) was 0.656 µM (active). For the same compound, the GI50 (LOX IMVI) was 6.03 µM (inactive), the GI50 (T47D) was 0.705 µM (active) and the GI50 (HT-29) was 23.8 µM (inactive). The GI50 (A549) was 24.4 µM (inactive), the GI50 (Hs-578T) was 32.3 µM (inactive) and the GI50 (SK-OV-3) was > 20.1 µM (inactive). For the same compound, the GI50 (SK-MEL-28) was 63.2 µM (inactive).
